According to US11845770B2, “Ascaroside derivatives and methods of use” (California Institute of Technology, priority 2019, dated 2023):
Entries after “also recorded” stand apart in the source; their conditions may differ.

What was measured:
[1] = system: EPC2 human esophageal keratinocytes; experiment: Stimulation of EPC2-hTERT human esophageal keratinocytes with Poly(I:C); assay type: cell-based; conditions: 24 hours, increasing concentrations
Method: EPC2-hTERT (EPC2) cells were maintained in supplemented keratinocyte serum-free medium (KSFM) with 0.09 mM calcium chloride containing epidermal growth factor (5 ng/mL), bovine pituitary extract ([…]), penicillin (100 units/mL), and streptomycin ([…]) (ThermoFisher #17005042) at 37° C. with 5% (v/v) CO2. EPC2 cells were seeded in 12-well plates at 0.55×10^6 cells per well in supplemented KSFM at 37° C. with 5% (v/v) CO2 and after 6 hours the old media is removed and changed with fresh media. After overnight incubation, the old media is changed to supplemented KSFM containing 1.8 mM calcium chloride and incubated for 72 hours at 37° C. with 5% (v/v) CO2. After the old media is removed and fresh supplemented KSFM containing 1.8 mM calcium chloride is added, the cells are pre-treated with different concentrations of compounds (0, 1, 10, 100, 500, 1000 μM) for 1 hour prior to stimulation. To stimulate the cells, Poly (I:C) (Tocris #4287) is added to the wells at […] concentration without removing the media and incubated for 24 hours at 37° C. with 5% (v/v) CO2. Supernatants are collected in Eppendorf tubes, centrifuged in a microfuge at maximum speed for 10 minutes at 4° C., and the centrifuged supernatants stored at −80° C. until quantitative detection assays are performed. Human Interleukin-6 (IL-6), Monocyte Chemoattractant Protein-1 (MCP-1), and Thymic stromal lymphopoietin (TSLP) released from supernatants collected post stimulation were measured using the AlphaLISA detection kit for human IL-6, MCP-1, and TSLP, respectively.

[2] = Stability in hepatocytes (mouse); assay type: in vitro ADME; conditions: cryopreserved mouse hepatocytes (suspension)
Method: 10 mM of 1 was provided as a 1000× stock solution in dimethylsulfoxide (DMSO), and the stock solution was diluted to 1 mM with DMSO in 96-well plates. 30 mM of positive compounds (7-ethoxycoumarin and 7-hydroxycoumarin) were provided as a 1000× stock solution in DMSO, and the stock solution was diluted to 3 mM with DMSO in 96-well plates. 20 μL of 1000× stock solution of each compound were pipetted and was mixed with 380 μL of 45% MeOH/H2O to obtain 50 μM of 1 and 150 μM of the positive control compound solutions to form 50× intermediate solutions. 20 μL of 50× intermediate solution of each compound were pipetted and was mixed with […] of pre-warmed incubation medium to obtain 5 μM of 1 and 15 μM of the positive control compound solutions to form 5× working solutions. The incubation medium was Williams' Medium E (no phenol red) containing 2 mM L-glutamine and 25 mM HEPES. 10 μL of 5× working solutions of each compound were pipetted into appropriate wells in a 96-well plate for time points of 0 minutes, 15 minutes, 30 minutes, 60 minutes, and 90 minutes in duplicates. The plates with compounds were kept warm in an incubator at 37° C.
A cell suspension was prepared by thawing cryopreserved cells, isolating the cells, and suspending the cells in thawing medium. […]
The remaining percentage of 1 after incubation was calculated according to the following equation. […]

Row | SMILES | percent inhibition relative to Stimulated of TSLP expression ([1]; FIG. 19A) | percent inhibition relative to Stimulated of IL-6 expression ([1]; FIG. 19B) | percent inhibition relative to Stimulated of MCP-1 expression ([1]; FIG. 19C) | half-life at 1 µM [2] [h]
1 | C[C@H](CC/C=C/C(=O)OC(C)(C)C)O[C@@H]1O[C@@H](C)[C@H](O)C[C@H]1O [Compound 1, tert-butyl (2E,6R)-6-{[(2R,3R,5R,6S)-3,5-dihydroxy-6-methyloxan-2-yl]oxy}hept-2-enoate] | statistically significant inhibition; also recorded: robust blocking | inhibited IL-6 expression in statistically significant, dose-dependent manner | inhibited MCP-1 expression in statistically significant, dose-dependent manner | –
2 | C[C@H](CC/C=C/C(=O)O)O[C@@H]1O[C@@H](C)[C@H](O)C[C@H]1O [ascr #7, reference compound] | – | – | – | > 3.61
